Values quoted from earlier work, collected in patent US8211048B2 (Henry Ford Health System, priority 2006, dated 2012).
Read-outs that look alike come from different tables or passages of the source.

## O=C(O)CC(O)(CC(=O)O)C(=O)O [Citrate]
25 C
  pKa2: 4.76
  pKa3: 6.40
As given for pre-filter fluid pH
  pKa3: 6.3
